Data published in patent US20230310436A1, “COMBINATION THERAPY FOR CANCERS WITH KRAS MUTATION” (COTHERA BIOSCIENCE, INC., priority 2019, published 2023).

How the values were obtained:
Assay type in all cases: cell-based
[1] = system: KRAS^G12C-NSCLC H23 cell line; experiment: Ex vivo Edu proliferation test (MI, GI %), H23; details: Table 2a; 7 days; uM: osimertinib 0.5, afatinib 0.2, cobimetinib 0.4, trametinib 0.02, palbociclib 0.15, ribociclib 5
Protocol: (§1) For ex vivo drug testing, the cells were exposed to a combination of drugs or single drugs for 4 days or 7 days. Following exposure with drug, 1,000-5,000 cells were labeled with 5-ethynyl-2′-deoxyuridine (Edu) to assess the tumor cell proliferation rates. The labeling lasted 24 hours in the presence of drug exposure. In the control group, epithelial tumor cells received no drug exposure with media change (with 0.1% DMSO), but were similarly labeled with Edu. The labeled cells were fixed and blocked with 3% BSA and 0.5% Triton X-100 for 2 hours at room temperature, followed by staining with Hoechst 33342 and EpCAM antibody (1:4000) in PBS solution containing 0.5% Triton X-100 overnight at 4° C. Subsequently, the cells were rinsed with PBST then incubated with Alexa Fluor® 647 conjugated goat-antimouse secondary antibody for 30 minutes at room temperature.
(§2) The incorporated Edu was detected by Click-iT reaction where fixed cells were incubated with a reaction mixture containing 1× Click-iT Edu reaction buffer, CuSO4, and azide-conjugated Alexa Fluor dye in the dark. The stained cells were washed with PBS two times before image acquisition and analysis.
(§3) For image acquisition and analysis, the stained tumor cells were imaged by a high-content screening (HCS) platform (Thermo Scientific CellomicsArrayScanXTi HCS reader). The 10× objective was used to collect images. Twenty-five fields were imaged for each well for the analysis. From the images three fluorescent signals were obtained from the HCS reader. Blue fluorescent signals recorded nucleus signals stained with Hoechst 33342, green fluorescent signal detected the Edu incorporated in newly synthesized DNA, and red fluorescent signal detected the EpCAM positive epithelial cells population.
(§4) The MI (Maximum Inhibition Index) was calculated using the EpCAM and Edu positive readout (Tables 1-4). MI=Edu positive cells in control/Edu positive cells in treatment. MI4 indicates an MI value after 4 days of treatment and MI7 indicates an MI values after 7 days of treatment. The MI and growth inhibition rate (GI %) values for KRAS^G12A-NSCLC (H1573 and H2009), KRAS^G12C-NSCLC (H358, H23 and H2030), KRAS^G12V-NSCLC (H2291 and H2444) and KRAS^G12D-NSCLC (H1588 and SK-LU-1) cell lines are shown in Tables 1-4, respectively. GI % is calculated as GI %=(1−1/MI)*100%.

[2] = system: KRAS^G12V-NSCLC H2444 cell line; experiment: Ex vivo Edu proliferation test (MI, GI %), H2444; details: Table 3; 4 days; uM: osimertinib 0.5, afatinib 0.2, trametinib 0.02, TAK-733 0.18, palbociclib 0.15, ribociclib 5
Protocol: as §1, §2, §3, §4

[3] = system: KRAS^G12C-NSCLC H2030 cell line; experiment: Ex vivo Edu proliferation test (MI, GI %), H2030; details: Table 2a; 7 days; uM: osimertinib 0.5, afatinib 0.2, cobimetinib 0.4, trametinib 0.02, palbociclib 0.15, ribociclib 5
Protocol: as §1, §2, §3, §4

[4] = system: KRAS^G12C-NSCLC H358 cell line; experiment: Ex vivo Edu proliferation test (MI, GI %), H358; details: Table 2a; 7 days; uM: osimertinib 0.5, afatinib 0.2, cobimetinib 0.4, trametinib 0.02, palbociclib 0.15, ribociclib 5
Protocol: as §1, §2, §3, §4

[5] = system: KRAS^G12V-NSCLC H2291 cell line; experiment: Ex vivo Edu proliferation test (MI, GI %), H2291; details: Table 3; 7 days; uM: osimertinib 0.5, afatinib 0.2, trametinib 0.02, TAK-733 0.18, palbociclib 0.15, ribociclib 5
Protocol: as §1, §2, §3, §4

[6] = system: KRAS^G12D-NSCLC H1588 cell line; experiment: Ex vivo Edu proliferation test (MI, GI %), H1588; details: Table 4; 4 days; uM: osimertinib 0.5, afatinib 0.2, cobimetinib 0.4, trametinib 0.02, TAK-733 0.18, palbociclib 0.15, ribociclib 5
Protocol: as §1, §2, §3, §4

[7] = system: KRAS^G12A-NSCLC H2009 cell line; experiment: Ex vivo Edu proliferation test (MI, GI %), H2009; details: Table 1; 4 days; uM: osimertinib 0.5, afatinib 0.2, cobimetinib 0.4, trametinib 0.02, TAK-733 0.18, palbociclib 0.15, ribociclib 5
Protocol: as §1, §2, §3, §4

[8] = system: KRAS^G12A-NSCLC H1573 cell line; experiment: Ex vivo Edu proliferation test (MI, GI %), H1573; details: Table 1; 4 days; uM: osimertinib 0.5, afatinib 0.2, cobimetinib 0.4, trametinib 0.02, TAK-733 0.18, palbociclib 0.15, ribociclib 5
Protocol: as §1, §2, §3
The MI (Maximum Inhibition Index) was calculated using the EpCAM and Edu positive readout (Tables 1-4). MI=Edu positive cells in control/Edu positive cells in treatment. MI4 indicates an MI value after 4 days of treatment and MI7 indicates an MI values after 7 days of treatment. […] GI % is calculated as GI %=(1−1/MI)*100%.

[9] = system: KRAS^G12D-NSCLC SK-LU-1 cell line; experiment: Ex vivo Edu proliferation test (MI, GI %), SK-LU-1; details: Table 4; 4 days; uM: osimertinib 0.5, afatinib 0.2, cobimetinib 0.4, trametinib 0.02, TAK-733 0.18, palbociclib 0.15, ribociclib 5
Protocol: as §1, §2, §3, §4

Compound | GI % (Growth Inhibition Rate), H23 [1] | MI 7 (Maximum Inhibition Index), H23 [1] | GI % (Growth Inhibition Rate), H2444 [2] | MI 4 (Maximum Inhibition Index), H2444 [2] | GI % (Growth Inhibition Rate), H2030 [3] | MI 7 (Maximum Inhibition Index), H2030 [3] | GI % (Growth Inhibition Rate), H358 [4] | MI 7 (Maximum Inhibition Index), H358 [4] | GI % (Growth Inhibition Rate), H2291 [5] | MI 7 (Maximum Inhibition Index), H2291 [5] | GI % (Growth Inhibition Rate), H1588 [6] | MI 4 (Maximum Inhibition Index), H1588 [6] | GI % (Growth Inhibition Rate), H2009 [7] | MI 4 (Maximum Inhibition Index), H2009 [7] | GI % (Growth Inhibition Rate), H1573 [8] | MI 4 (Maximum Inhibition Index), H1573 [8] | GI % (Growth Inhibition Rate), SK-LU-1 [9] | MI 4 (Maximum Inhibition Index), SK-LU-1 [9]
CN(C)C/C=C/C(=O)Nc1cc2c(Nc3ccc(F)c(Cl)c3)ncnc2cc1O[C@H]1CCOC1 [Afatinib, afatinib] | 16.09% | 0.87 | 44.30% | 1.80 | 55.33% | 2.23 | 22.84% | 1.30 | 26.00% | 1.35 | 43.02% | 1.75 | 14.83% | 1.17 | 42.36% | 1.73 | 8.65% | 1.09
O=C(c1ccc(F)c(F)c1Nc1ccc(I)cc1F)N1CC(O)([C@@H]2CCCCN2)C1 [Cobimetinib, cobimetinib] | 75.83% | 4.25 |  |  | 92.44% | 13.21 | 97.48% | 39.68 |  |  | 48.38% | 1.94 | 67.99% | 3.12 | 96.36% | 27.49 | 64.82% | 2.84
C=CC(=O)Nc1cc(Nc2nccc(-c3cn(C)c4ccccc34)n2)c(OC)cc1N(C)CCN(C)C [Osimertinib, osimertinib] | 13.11% | 0.89 | 66.51% | 2.99 | 57.39% | 2.35 | 22.86% | 1.30 | 21.19% | 1.30 | 55.11% | 2.23 | 35.30% | 1.55 | 67.71% | 3.10 | 35.73% | 1.56
CC(=O)c1c(C)c2cnc(Nc3ccc(N4CCNCC4)cn3)nc2n(C2CCCC2)c1=O [Palbociclib, palbociclib] | 41.73% | 1.72 | 59.59% | 2.47 | 52.39% | 2.10 | 60.31% | 2.53 | 81.25% | 5.36 | 53.52% | 2.15 | 8.82% | 1.10 | 92.17% | 12.77 | 73.45% | 3.77
CN(C)C(=O)c1cc2cnc(Nc3ccc(N4CCNCC4)cn3)nc2n1C1CCCC1 [Ribociclib, ribociclib] | 74.57% | 3.96 | 74.54% | 3.93 | 84.67% | 6.57 | 95.43% | 21.19 | 98.65% | 72.98 | 60.57% | 2.54 | 10.09% | 1.11 | 99.00% | 100.43 | 91.58% | 11.88
Cn1c(=O)c(F)c(Nc2ccc(I)cc2F)c2c(=O)n(C[C@@H](O)CO)cnc21 [TAK-733] |  |  | 99.01% | 100.76 |  |  |  |  | 98.27% | 57.57 | 36.93% | 1.59 | 62.18% | 2.64 | 89.62% | 9.64 | 77.44% | 4.43
